Measured values from patent US6790825B2, “Method of using secretin and compositions made therefrom for the treatment of autism and other neurological, behavioral and immunological disorders” (Repligen Corporation, priority 1997, dated 2004).
Entries after “also recorded” stand apart in the source; their conditions may differ. No end group written: not given here.

How the values were obtained:
[1] = tested on: patient, a child with symptoms of autism; experiment: Daily transdermal secretin with DMSO in the same patient (Example 2); type: in vivo, human
Description: At the time of this treatment, the patient was […]. Secretin was administered transdermally using pharmaceutical grade dimethyl sulfoxide (DMSO) (generally 99.9% pure) available from Clinic Service Co., Box 2512, Hemet Calif. 92543. The secretin (Secretin-Ferring) was administered daily in a dosage of about 75 CU over a five day period (i.e., about 15 CU daily). For each treatment, about 4 drops of DMSO were placed onto the skin of the patient, about 15 CU of the crystalline secretin was placed onto the DMSO, and the composition was rubbed into the skin.

pancreas = experiment: Pancreatic juice release after secretin infusion during upper gastrointestinal endoscopy (Example 1); type: in vivo, human; details: immediately after 2 CU/kg i.v. over one minute; usual rate 1-2 ml/min
Description: (§1) When the patient was […], the secretin was administered by way of an infusion as part of an upper gastrointestinal endoscopy. The secretin was used in this diagnostic procedure at the request of the patient's parents, one of which is an inventor of the present invention. The secretin used in this procedure is known as Secretin-Ferring available from Ferring Laboratories, Inc., Suffern, N.Y. (See Appendix A). The secretin was dissolved in a […] solution of sodium chloride and administered in a dosage of 2 clinical units (CU) per kilogram (kg) body weight by intravenous injection over one minute. (I.E. 30 IU IV for approximately 15 kilograms of body weight.)
(§2) The diagnostic tests performed on the patient during this procedure also indicated gastric inflammation. […] The following Table I summarizes the improvements observed in the patient within 3 weeks after the infusion of secretin.

abnormal opioid peptides = details: autistic children that responded to casein free and gluten free diet; measured before and after infusion; cited from earlier work
[2] = tested on: patient, a child with symptoms of autism; experiment: Intravenous secretin infusion in a child with symptoms of autism (Example 1): behavioral and biomedical changes; type: in vivo, human
Text: The present invention will be better understood from the following examples which are given by way of illustration and not by way of limitation. The patient, the same in both examples, is a child with symptoms of autism.
The patient in the present examples developed normally […], with the exception of gastrointestinal problems (i.e., chronic diarrhea and constipation) which began at about six months. At about thirteen months, when whole milk was introduced into their diet, the patient began having reoccurring ear infections. At about fourteen months, the patient appeared to lose the ability to process language, first receptively (at about 14 months) then expressively (at about 16 months). The patient also experienced episodes of “shivers” that appeared to be intermittent seizures.
After consulting with numerous neurologists, pediatricians, child development specialists, audiologists, endocrinologists, allergists, and other medical professionals, no consistent diagnosis had been reached. […] The term autism is used herein for reference purposes only, and this invention is intended to apply to any number of pervasive developmental disorders as well as neurological and immunological disorders.
as §1, §2
Biomedical changes were also measured in the patient.
At the request of the patient's parents, a second infusion of secretin was performed about 9 months after the first infusion, and a third infusion of secretin was performed about three months after the second infusion.

secretin (HSDGTFTSELSRLRDSARLQRLLQGLV-NH2; ends and bridges not checked; UniProt P63298 33-59, looked up) [polypeptide hormone secreted by the mucosa of the duodenum and upper jejunum; used as Secretin-Ferring from Ferring Laboratories]
Improvements in the patient on daily transdermal administration ([1]; about 15 CU daily with about 4 drops DMSO rubbed into the skin, compared with infusion): even more dramatic and significant improvements
Effect of stopping the daily dose ([1]; daily transdermal dose stopped): autistic behavioral symptoms return
Language progress ([1]; within about 6 months, about 15 CU daily transdermally with DMSO): progressed to spontaneous and conversational language
Amount of pancreatic juice released (pancreas): approximately 10 ml/min
Abnormal opioid peptides after the secretin infusion (abnormal opioid peptides): disappeared
SPECT scan: perfusion of the right posterior parietal and right temporal lobes (blood flow in the brain) ([2]; after the infusion): improved; also recorded: increased blood flow in the brain
Measles, mumps and rubella antibodies ([2]; after the secretin administration in Example 1): reduction of measles, mumps and rubella antibodies
Rubella titers ([2]; after the treatment, dropped from 5.8 before): 2.3
Rate of the patient's progress ([2]; at about 5 weeks after the first infusion, behavioral improvements continued): appeared to decrease
Progress within 3 weeks after the secretin infusion: bowel movements ([2]; before infusion: Abnormal bowel movements, 2 CU/kg i.v.): Normal bowel movements.
Progress within 3 weeks after the secretin infusion: sleeping problems ([2]; before infusion: Consistent sleeping problems, up numerous times each night, 2 CU/kg i.v.): Has slept through almost every night
Progress within 3 weeks after the secretin infusion: toilet training ([2]; before infusion: Diapers only, 2 CU/kg i.v.): Completely potty trained.
Progress within 3 weeks after the secretin infusion: imitation of commands ([2]; before infusion: Did not imitate commands, 2 CU/kg i.v.): Will imitate almost any multi-step
Progress within 3 weeks after the secretin infusion: spinning episodes ([2]; before infusion: Infrequent (1-2 times/week) spinning episodes, 2 CU/kg i.v.): No spinning episodes.
Progress within 3 weeks after the secretin infusion: diet preferences ([2]; before infusion: Limited Diet Preferences, 2 CU/kg i.v.): No Change
Progress within 3 weeks after the secretin infusion: eye contact ([2]; before infusion: Minimal eye contact, 2 CU/kg i.v.): Eye contact 75% of the time.
Progress within 3 weeks after the secretin infusion: connections between language and objects ([2]; before infusion: No apparent connections made, 2 CU/kg i.v.): Many connections made between
Progress within 3 weeks after the secretin infusion: flash cards ([2]; before infusion: No flash cards, 2 CU/kg i.v.): 40-50 flash cards.
Progress within 3 weeks after the secretin infusion: interest in drawing ([2]; before infusion: No interest in drawing, 2 CU/kg i.v.): Wants to draw constantly. Will draw
Progress within 3 weeks after the secretin infusion: response to request for gestures ([2]; before infusion: No response, 2 CU/kg i.v.): Responds to all kinds of things
Progress within 3 weeks after the secretin infusion: sentences ([2]; before infusion: No sentences, 2 CU/kg i.v.): Short sentences - such as; “I love you”,
Progress within 3 weeks after the secretin infusion: words spoken ([2]; before infusion: Two words, 2 CU/kg i.v.): 100's of words - will repeat some
Progress within 3 weeks after the secretin infusion: interaction with videos ([2]; before infusion: Watch Videos, 2 CU/kg i.v.): Now, gets “involved” interactively
Serotonin levels in blood ([2]; blood tests after the treatment): rise in serotonin levels; also recorded: increase in serotonin levels
Progress within 3 weeks after the secretin infusion: water consumption ([2]; no change, before infusion: excessive, approximately 50 cups per day, 2 CU/kg i.v.): change approximately 50 cups per cups per day
Results of second and third infusions ([2]; second about 9 months after the first, third about three months after the second): achieved the same results
Chronic abnormal bowel movements ([2]; within days after administration, no change of diet): became normal
